In patent US20250214969A1, “PROTEIN DEGRADERS AND USES THEREOF” (Kymera Therapeutics, Inc., priority 2022, published 2025):
pIC50: −log10 of the molar value.

Tests used:
[1] = biological target: T1, truncated His-MBP-Tev-KLHDC2 (residues 1-363) (Homo sapiens, UniProt Q9Y2U9); experiment: KLHDC2 HTRF binding assay; conditions: 1 nM KLHDC2 (residues 1-363), fluorescein-labeled diglycine peptide probe
T1 construct: truncated His -MBP-Tev-KLHDC2 (residues 1-363) purified from E. coli; made in house; host or cells: E. coli
T1 sequence (Q9Y2U9 1-363): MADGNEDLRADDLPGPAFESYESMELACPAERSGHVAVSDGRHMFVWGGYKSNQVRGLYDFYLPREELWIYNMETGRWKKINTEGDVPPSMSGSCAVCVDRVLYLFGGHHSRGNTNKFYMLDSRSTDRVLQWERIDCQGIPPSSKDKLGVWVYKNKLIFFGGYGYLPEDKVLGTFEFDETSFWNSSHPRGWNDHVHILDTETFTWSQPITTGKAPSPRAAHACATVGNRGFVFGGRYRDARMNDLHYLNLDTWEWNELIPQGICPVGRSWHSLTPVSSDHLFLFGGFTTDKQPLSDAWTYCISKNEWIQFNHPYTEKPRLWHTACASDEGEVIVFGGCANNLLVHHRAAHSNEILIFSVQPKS

[2] = biological target: T1, truncated His-MBP-Tev-KLHDC2 (residues 1-363); experiment: KLHDC2 FP competition binding assay; conditions: 15 nM KLHDC2 (residues 1-363), 10 nM fluorescein-labeled diglycine peptide probe, read-out: KLHDC2 binding Human FP: average external IC50

pIC50 [1]	pIC50 [2]	SMILES
6.30 to 7.30	5.30 to 6.30	N#Cc1cc(=O)n(CC(=O)O)cc1NC(=O)[C@H]1CCCN(c2cccnc2)C1 [I-26]
< 5.30	< 5.30	O=C(O)C1CC(=O)N(Cc2ccccn2)C1 (stereo not shown) [I-230]
6.30 to 7.30	5.30 to 6.30	O=C(O)Cn1cc(NC(=O)[C@@H]2C[C@H](C(F)(F)F)CN(c3cccnc3)C2)ccc1=O [I-65]
< 5.30	< 5.30	O=C(O)Cn1cc(-c2cccc(F)c2)ccc1=O [I-420]
< 5.30	< 5.30	Cc1ccccc1-c1cccc(C(=O)Nc2ccc(=O)n(CC(=O)O)c2)c1 [I-289]
< 5.30	< 5.30	O=C(O)Cn1cc(-c2cncc(CCc3ccccc3)c2)ccc1=O [I-285]
> 7.30	> 7.30	COc1cccc2c(N3CCC[C@H](C(=O)Nc4ccc(=O)n(CC(=O)O)c4)C3)cncc12 [I-9]
< 5.30	< 5.30	Cc1ccc(C)c(-c2ccc(=O)n(CC(=O)O)c2)c1 [I-419]
5.30 to 6.30	< 5.30	O=C(O)Cn1cc(NC(=O)c2cccc(-c3cccnc3)c2C(F)(F)F)ccc1=O [I-10]
< 5.30	< 5.30	Cn1cc(N2CC(C(=O)O)CC2=O)cn1 (stereo not shown) [I-226]
< 5.30	< 5.30	CN(C)C(=O)Cc1ccc(=O)n(CC(=O)O)c1 [I-284]
< 5.30	< 5.30	CS(=O)(=O)c1ccc(-c2cccc(C(=O)Nc3ccc(=O)n(CC(=O)O)c3)c2)cc1 [I-192]
6.30 to 7.30	5.30 to 6.30	COc1cc(-c2ccc(F)cc2)ccc1C(=O)Nc1ccc(=O)n(CC(=O)O)c1 [I-155]
< 5.30	< 5.30	Cn1cc(-c2cccc(C(=O)Nc3ccc(=O)n(CC(=O)O)c3)c2)ccc1=O [I-178]
5.30 to 6.30	< 5.30	Cc1ccc(C(=O)Nc2ccc(=O)n(CC(=O)O)c2)nc1-c1cccnc1 [I-170]
6.30 to 7.30	5.30 to 6.30	CCN(CC)c1ccc2cc(C(=O)Nc3ccc(=O)n(CC(=O)O)c3)c(=O)oc2c1 [I-237]
< 5.30	< 5.30	Cn1ccc(N2CC(C(=O)O)CC2=O)n1 (stereo not shown) [I-233]
< 5.30	< 5.30	COc1ccc(-c2cc(C)ccc2C)cc1CC(=O)O [I-354]
< 5.30	< 5.30	COc1ccc(/C=C/CC(=O)Nc2ccc(=O)n(CC(=O)O)c2)cc1 [I-210]
< 5.30	< 5.30	O=C(O)Cn1cc(NC(=O)c2cccc(C3CCC3)c2)ccc1=O [I-240]
< 5.30	< 5.30	O=C(O)Cn1cc(-c2ccc(F)cc2F)ccc1=O [I-370]
< 5.30	< 5.30	O=C(O)Cn1cc(NC(=O)c2cccc(-c3cccc(C(F)(F)F)c3)c2)ccc1=O [I-200, 2-(2-oxo-5-(3′-(trifluoromethyl)-[1,1′-biphenyl]-3-carboxamido)pyridin-1 (2H)-yl) acetic acid]
6.30 to 7.30	5.30 to 6.30	O=C(O)Cc1cc(NC(=O)[C@H]2CCCN(c3cccnc3)C2)ccc1F [I-33]
< 5.30	< 5.30	O=C(O)Cc1cc(NC(=O)[C@@H]2CCCN(c3cccnc3)C2)ccc1Cl [I-30]

pIC50 [1]	pIC50 [2]	SMILES
< 5.30	< 5.30	O=C(O)Cn1c(=O)oc2cc([N+](=O)[O-])ccc21 [I-214]
< 5.30	< 5.30	Cc1cccc(-c2ccc(O)c(CC(=O)O)c2)c1 [I-337]
< 5.30	< 5.30	O=C(O)Cn1cc(NC(=O)c2cccc(Br)c2)ccc1=O [I-268]
5.30 to 6.30	< 5.30	CC(C)c1ccc(C(=O)Nc2ccc(=O)n(CC(=O)O)c2)cc1-c1ccccc1 [I-175]
< 5.30	< 5.30	O=C(O)Cn1cc(Nc2nccc3c(-c4cccnc4)cccc23)ccc1=O [I-93]
5.30 to 6.30	< 5.30	O=C(O)Cn1cc(N2CCc3ccccc3C2=O)ccc1=O [I-95]
5.30 to 6.30	< 5.30	O=C(O)Cn1cc(NC(=O)c2cccc(-c3cccnc3)n2)ccc1=O [I-141]
< 5.30	< 5.30	Cc1ccc(CC(C)(C)O)cc1-c1ccc(=O)n(CC(=O)O)c1 [I-308]
> 7.30	> 7.30	Cc1sc2c(c1C)C(c1ccc(Cl)cc1)=N[C@@H](CC(=O)NCCCCCCn1ccc3c(C(=O)Nc4ccc(=O)n(CC(=O)O)c4)cccc31)c1nnc(C)n1-2 [I-474]
< 5.30	< 5.30	O=C(Nc1ccnc(C(=O)O)c1)c1cccc(-c2cccnc2)c1 [I-37]
< 5.30	< 5.30	O=C(O)Cn1cc(N2CCC3(CCN(c4cccnc4)CC3)C2=O)ccc1=O [I-38]
5.30 to 6.30	< 5.30	O=C(O)Cn1cc(NC(=O)[C@@H]2CCCN(c3cccnc3)C2)c(Cl)cc1=O [I-82]
< 5.30	< 5.30	O=C(O)Cc1ccccc1O [I-425]
5.30 to 6.30	5.30 to 6.30	NCCCCCCc1ccncc1-c1cccc(C(=O)Nc2ccc(=O)n(CC(=O)O)c2)c1 [I-163]
< 5.30	< 5.30	NC(=O)Cc1cccc(-c2ccc(=O)n(CC(=O)O)c2)c1 [I-302]
> 7.30	< 5.30	NCCCCCCCCCc1ccc2c(-c3cccc(C(=O)Nc4ccc(=O)n(CC(=O)O)c4)c3)cncc2c1 [I-107]
< 5.30	< 5.30	O=C(O)CCN1C(=O)CCc2ccccc21 [I-229]
< 5.30	< 5.30	Cc1ccc2nc(C(=O)Nc3ccc(=O)n(CC(=O)O)c3)ccc2c1 [I-187]
< 5.30	< 5.30	O=C(O)Cn1cc(-c2ccc(C(=O)N3CCOCC3)cc2)ccc1=O [I-392]
5.30 to 6.30	5.30 to 6.30	O=C(O)Cn1cc(NC(=O)[C@@H]2Cc3ccccc3N(c3cccnc3)C2)ccc1=O [I-11]
5.30 to 6.30	5.30 to 6.30	O=C(O)Cn1cc(NC(=O)c2ccc(-c3ccccc3)cc2F)ccc1=O [I-161]
< 5.30	< 5.30	NC(=O)Cn1cc(NC(=O)c2cccc(-c3cccnc3)c2)ccc1=O [I-123]
5.30 to 6.30	< 5.30	O=C(O)Cn1cc(NC(=O)c2cccc3[nH]ccc23)ccc1=O [I-139]
< 5.30	< 5.30	O=C(O)Cn1cc(NC(=O)COc2cccc(Cl)c2)ccc1=O [I-265]

pIC50 [1]	pIC50 [2]	SMILES
< 5.30	< 5.30	O=C(O)Cn1cc(-c2cccc(C(F)(F)F)c2)ccc1=O [I-381]
< 5.30	< 5.30	O=C(O)Cn1cc(-c2ccccc2F)ccc1=O [I-395]
< 5.30	< 5.30	CCCCC(=O)Nc1cncc(C(=O)Nc2ccc(=O)n(CC(=O)O)c2)c1 [I-241]
< 5.30	< 5.30	O=C(O)Cn1cc(N2Cc3ccc(-c4cccnc4)cc3C2=O)ccc1=O [I-81]
6.30 to 7.30	5.30 to 6.30	CC1CCN(c2cccnc2)CC1C(=O)Nc1ccc(=O)n(CC(=O)O)c1 (stereo not shown) [I-61]
< 5.30	< 5.30	O=C(O)Cn1cc(-c2cccs2)ccc1=O [I-424]
< 5.30	< 5.30	O=C(O)Cn1cc(N2CC[C@@]3(CCCN(c4cccnc4)C3)C2=O)ccc1=O [I-14]
< 5.30	< 5.30	COc1cncc(-c2cccc(C(=O)Nc3ccc(O)c(CC(=O)O)c3)c2)c1 [I-22]
5.30 to 6.30	< 5.30	COc1cc(-c2cccnc2)ccc1C(=O)Nc1ccc(=O)n(CC(=O)O)c1 [I-204]
6.30 to 7.30	5.30 to 6.30	Cc1ccc(C(=O)Nc2ccc(=O)n(CC(=O)O)c2)cc1-c1cccnc1 [I-202]
5.30 to 6.30	< 5.30	Cc1ccc(C(=O)Nc2ccc(=O)n(CC(=O)O)c2)nc1-c1ccccc1 [I-173]
< 5.30	< 5.30	O=C(O)CN1CC(NC(=O)c2cccc(-c3cccnc3)c2)CCC1=O (stereo not shown) [I-86]
< 5.30	< 5.30	N#CCn1cc(NC(=O)c2cccc(-c3cccnc3)c2)ccc1=O [I-69]
< 5.30	< 5.30	CS(=O)(=O)Nc1cccc(CC(=O)O)c1 [I-227]
< 5.30	< 5.30	O=C(O)Cn1cc(-c2cccc(CN3CCCCC3)c2)ccc1=O [I-303]
< 5.30	< 5.30	O=C(O)Cn1cc(NC(=O)c2cccc(-c3cccc(F)c3)c2)ccc1=O [I-298]
< 5.30	< 5.30	CCc1ccc(C)c(-c2ccc(=O)n(CC(=O)O)c2)c1 [I-340]
< 5.30	< 5.30	CCOC(=O)Cn1cc(NC(=O)c2cc(CCCCCCNC(=O)OC(C)(C)C)cc(-c3cccnc3)c2)ccc1=O [I-162]
< 5.30	< 5.30	O=C(O)Cn1cc(NC(=O)C(c2ccccc2)c2ccccc2)ccc1=O [I-328]
< 5.30	< 5.30	O=C(O)Cn1cc(NC(=O)COc2cccc3ncccc23)ccc1=O [I-263]
< 5.30	< 5.30	O=C(O)Cn1ccccc1=O [I-428]
< 5.30	< 5.30	Cc1c(NC(=O)c2cccc(-c3cccnc3)c2)ccc(=O)n1CC(=O)O [I-70]

SMILES	pIC50 [1]	pIC50 [2]
Cc1sc2c(c1C)C(c1ccc(Cl)cc1)=N[C@@H](CC(=O)NCCCCCCc1ccc(C(=O)Nc3ccc(=O)n(CC(=O)O)c3)cc1-c1cccnc1)c1nnc(C)n1-2 [I-473]	6.30 to 7.30	> 7.30
